Our source for the inhibition in vivo and inhibition values is ChEMBL document CHEMBL1127939, “Non-peptide fibrinogen receptor antagonists. 3. design and discovery of a centrally constrained inhibitor” (Bioorg Med Chem Lett, 1994).

Structures are written as SMILES. Calls of active or inactive are those of the source. The rule behind the calls is not given here.

For assay [1], the system named is Canis familiaris. In words: Ex vivo percent inhibition of platelet aggregation at oral dose of 4 mg/kg after 480 min. Particulars: Canis lupus familiaris, 8 h. It is filed as functional.
The test system of a further assay is HUVEC. Briefly: Inhibition of human umbilical vein endothelial cell (HUVEC) adhesion to vitronectin at 300 uM (No inhibition). It is filed as cell-based.
Assay [2] concerns the target Integrin alpha-5/beta-1 (Homo sapiens) (UniProt P05556+P08648). In words: Inhibition of human umbilical vein endothelial cell (HUVEC) adhesion to fibronectin at 300 uM (No inhibition). The assay is classed as cell-based.
In assay [3] the test system is Canis familiaris. In words: Ex vivo percent inhibition of platelet aggregation at oral dose of 2 mg/kg after 140 min. Particulars: Canis lupus familiaris. The assay is classed as functional.
The target in assay [4] is Integrin alpha-IIb/beta-3 (Homo sapiens) (UniProt P05106+P08514). Briefly: Inhibition of human umbilical vein endothelial cell (HUVEC) adhesion to fibrinogen at 300 uM (No inhibition). It is filed as cell-based.

By inhibition in vivo is commonly meant how much of the control response was suppressed.

`O=C(O)CCNC(=O)c1ccc2c(c1)C(=O)N(CCC1CCNCC1)C2` showed an inhibition in vivo at 4 mg/kg with Canis familiaris [1] of 90%. For the same compound, the inhibition entry (in the assay with HUVEC; in assay [2]; in assay [4]) was “inactive” each time. In the assay with Canis familiaris [3], this compound came in with an inhibition in vivo at 2 mg/kg of 65%.
